Data as given in paper PMC4585333, “Novel Regulator of Acylated Ghrelin, CF801, Reduces Weight Gain, Rebound Feeding after a Fast, and Adiposity in Mice” (Frontiers in Endocrinology, 2015).

What was measured:
Type in all cases: in vivo, male C57BL/6J mice
Metabolic efficiency = settings: treatment period
Experimental: A second cohort of mice (n = 30) was acclimated to the laboratory conditions for 1 week prior to the onset of the experiment. Mice were housed individually and their body weight and food intake was recorded daily for a baseline period of 10 days. Given that ghrelin augments the intake of preferred diets ([28]), all mice received ad libitum access to a high-fat diet (60% of calories coming from fat), in addition to regular chow, to determine if CF801 altered dietary preference. Both chow and high-fat diet pellets were provided daily to mice ad libitum in pre-weighed amounts. Mice were then assigned to four different groups: non-injected control (NIC; n = 7), vehicle (0.9% saline) (VEH; n = 7), low-dose CF801 (11 μmol⋅kg^−1 – LD; n = 8) and high-dose CF801 (22 μmol⋅kg^−1 – HD; n = 8). Each day at 09:00 hours, mice were weighed and their food intake (both chow and high-fat diet) was recorded. After this, mice received an intraperitoneal injection of either CF801 or saline (except for the non-injected controls). Following the 13-day treatment period, half the animals in each group were sacrificed, while the remaining mice were allowed to recover from treatment. […] At this point, the remaining mice were sacrificed. Carcasses from all animals were frozen and stored at −80°C until they were scanned for body composition analyses. Immediately prior to analysis, all carcasses were thawed to room temperature and weighed in order to obtain measures relative to total carcass mass. EchoMRI carcass analyses were performed at Health Canada, Nutrition Research Division facilities using the EchoMRI-1100 (System ID EF-020) scanner. Each carcass was analyzed separately and measurements of total fat mass, total lean mass, and total water weight were obtained for each mouse.
Metabolic efficiency, defined as the amount of weight gained per calorie of energy consumed during a given time period, was calculated for each mouse during the baseline and treatment period. There were no differences in metabolic efficiency between any groups during the baseline period (data not shown).

[1] = Rebound food intake after a fast
Experimental: In general, male C57BL/6J mice (The Jackson Laboratory, Bar Harbor, ME, USA) weighing 20–25 g were used as experimental subjects. Throughout the duration of the studies, mice were housed under standard laboratory conditions and received ad libitum access to standard laboratory mouse chow and tap water. Lights in the facility were set to go on and off at 12 h intervals with the lights going on at 7:00 a.m. In some experiments, mice also had ad libitum access to a high-fat diet containing 60% caloric content from fat (TD 06414; Harlan Teklad, Indianapolis, IN, USA) in addition to regular chow to measure dietary preferences. All procedures were approved by the Carleton University Animal Care Committee and followed the guidelines of the Canadian Council on Animal Care.
(§1) Mice (n = 16) were singly housed and given free access to water and regular chow for a 4-day baseline period. After this, mice were assigned to one of three groups: vehicle (n = 5), CF801 low dose (n = 5; 11 μmol⋅kg^−1 – LD), or CF801 high dose (n = 6; 22 μmol⋅kg^−1 – HD). These mice were injected intraperitoneally once a day for 4 days starting at 10:00 a.m. Following 4 days of treatment, animals were tested for rebound feeding after a fast. To do this, we removed the food from each cage 1 h before lights out (6:00 p.m.), and food was returned to the cage the following day 1 h after the last injection. Food intake was then monitored every hour for 4 h to determine the effects of CF801 on rebound feeding. Animals were then sacrificed by rapid decapitation to collect trunk blood and other tissues. Two samples were lost during sample collection, so the number of samples used to measure acylated ghrelin was reduced to n = 14.

[2] = Indirect calorimetry, respiratory exchange ratio; settings: 22 μmol⋅kg^−1 i.p. daily for a week, 4-h period following injection, n = 5 vs saline n = 5; t(5) = 3.457, p < 0.05
Experimental: Mice (n = 10) were housed individually and their body weight and food intake was recorded daily for a baseline period of 10 days. As in Experiment 1, all mice had ad libitum access to regular lab chow and a high-fat diet (60% of calories coming from fat). At the end of the baseline, mice were housed in metabolic chambers (TSE Systems) for 48 h to examine metabolic rate using indirect calorimetry prior to the onset of the drug treatment. While indirect calorimetry measures were obtained throughout the 48-h period, we only analyzed measurements in the last 24 h to allow the animals to adjust to the chambers. Mice were then assigned to one of two groups: vehicle (0.9% saline) (VEH; n = 5) and CF801 (22 μmol⋅kg^−1; n = 5). Each day at 09:00 hours, mice were weighed and their food intake (both chow and high-fat diet) was recorded, and then received an intraperitoneal injection of either CF801 or saline. Drug treatment continued for 16 days. On the eighth day, mice were again placed in the metabolic chambers for 48 h while still being monitored and injected with their respective treatment to determine differences in metabolism produced by the drug.
Given that treatment with CF801 decreased weight gain without altering caloric intake, we reasoned that perhaps CF801 was exerting its effects at the metabolic level. […]

[3] = Blood glucose in trunk blood; settings: after 4 days i.p. treatment, fast and refeeding, F(1,15) = 1.105, p > 0.05
Experimental: as §1
Following the treatment or recovery periods, mice were killed by rapid decapitation and plasma and tissue samples were collected. To measure glucose levels, glucose strips attached to a Contour glucose meter (Bayer Corp., Pittsburgh, PA, USA) were dipped in trunk blood collected before being centrifuged. […] Plasma acylated ghrelin for all animals was measured using an ELISA kit (Millipore).

Sequence: GSAFLSPEHQRK KRRQRRR-NH2 [CF801]
- metabolic efficiency, low dose vs NIC and VEH (Metabolic efficiency; 11 μmol⋅kg^−1 i.p., p < 0.05, overall F(1,29) = 9.086, partial eta^2 = 0.522): significantly lower metabolic efficiencies
- metabolic efficiency, high dose vs NIC and VEH (Metabolic efficiency; 22 μmol⋅kg^−1 i.p., p < 0.05, overall F(1,29) = 9.086, partial eta^2 = 0.522): significantly lower metabolic efficiencies
- metabolic efficiency, high dose vs low dose (Metabolic efficiency; 22 vs 11 μmol⋅kg^−1 i.p., p > 0.05): no different than animals receiving LD CF801
- food consumed during first hour of refeeding, high dose ([1]; 22 μmol⋅kg^−1 i.p., after fast, F(2,24) = 2.394, p < 0.05, partial eta^2 = 0.22): lower amount of food consumed
- total chow consumed during 4-h food access, high dose vs saline ([1]; 22 μmol⋅kg^−1 i.p., HD vs saline, p < 0.01, Fisher LSD): statistically significant
- total chow consumed during 4-h food access, treatment effect ([1]; after fast, F(2,24) = 4.527, partial eta^2 = 0.411, p > 0.05 as printed): significant overall dose-dependent treatment effect
- food consumed, other time points ([1]; any time point of 4 h refeeding other than first hour, p > 0.05): No significant effects were seen at any other time point examined
- food intake or weight gain during first 3 days of treatment ([1]; i.p. once daily, 11 and 22 μmol⋅kg^−1, data not shown, p > 0.05): No effects
- respiratory exchange ratio (RER) [2]: significant decrease in RER
- blood glucose concentrations [3]: No significant differences
